In patent US10590109B2, “Heterocyclic compounds used as FGFR inhibitors” (Nanjing InnoCare Pharma Tech Co., Ltd., priority 2016, dated 2020) one finds IC50 data, which are given here for one compound.

Some results are limits rather than exact numbers.

In the assay the target is human recombinant FGFR3 catalytic structural domain protein (Homo sapiens (Human), UniProt P22607). Description: FGFR3 activity inhibition test (HTRF kinase assay). Conditions: 90 μM ATP. Type of assay: biochemical. As to the method:
FGFR3 Activity Inhibition Test
The influence of the compound according to the present invention on the activity of fibroblast growth factor receptor 3 (FGFR3) was evaluated by an in vitro kinase assay experiment.
The experimental method is summarized as follows:
The in vitro activity of FGFR3 was determined by assaying the phosphorylation level of the substrate in the kinase reaction, by means of an HTRF kinase assay kit. The reaction buffer comprised the following components: 5-fold diluted Enzymatic buffer/kinase 5× (Cisbio, Catalog number 62EZBFDD) (main ingredient: 50 mM HEPES, pH 7.0), 5 mM MgCl2, 1 mM DTT; the human recombinant FGFR3 catalytic structural domain protein (amino acids 399-806) was commercially available from Sino Biological Inc., diluted with the reaction buffer to a 0.3 ng/μL kinase solution; the substrate reaction solution comprised a biotin labeled tyrosine kinase substrate diluted with the reaction buffer to 1000 nM (Cisbio, catalog number 62TK0PEC), and 90 μM ATP, and the assay solution comprised an Eu^3+ labeled cage-shaped antibody (Cisbio, Catalog number 61T66KLB) diluted with the assay buffer (Cisbio, Catalog number 62SDBRDF) to 0.125 ng/μL, and 62.5 nM streptavidin labeled XL665 (Cisbio, Catalog number 610SAXLB).
The compound was dissolved and diluted in 100% DMSO to 100 μM, then 4-fold-series diluted with DMSO to a minimum concentration of 0.0061 μM, and each concentration point was then 40-fold diluted with the reaction buffer. If the IC50 value of the compound was very low, the initial concentration of the compound could be reduced.
4 μL of a compound solution and 2 μL of an FGFR3 kinase solution were added into a 384 well assay plate (Thermo, Catalog number 264706), mixed uniformly and then incubated for 15 min at room temperature; subsequently, 4 μL of the substrate reaction solution was added therein, and the reaction mixture was incubated for 60 min at room temperature; and then 10 μL of an assay solution of an equal volume to the reaction was added therein and mixed uniformly, followed by placement at room temperature. After 60 min, the enzyme reaction was terminated by EDTA in the assay solution, and the phosphorylated products were identified by both the Eu^3+ labeled cage-shaped antibody (donor) and the streptavidin labeled XL665 antibody (receptor) at the same time. After the excitation with laser, the donors and receptors that were close to each other experienced energy resonance transfer, and the energy transferred from the donor (620 nm) to the receptor (665 nm) could be detected with Envision. The ratio of 665/620 is in positive correlation to the phosphorylation degree of the substrate, thereby to detect the FGFR3 kinase activity. […] The inhibition percentage of the compound against […] activity could be calculated with the following formula: Inhibition percentage=100−100*(signalcompound−signalnegative control)/(signalpositive control−signalnegative control)
The IC50 value of the compound was calculated by the following formula, from 10 concentration points, with XLfit (ID Business Solutions Ltd., UK): Y=Bottom+(Top−Bottom)/(1+10^((Log IC50−X)*slope factor)) Where, Y is the inhibition percentage, Bottom is the bottom plateau of the curve (the bottom plateau of the S-type curve), Top is the top plateau of the curve (the top plateau of the S-type curve), and X is the log value of the compound concentration to be measured.
For orientation: Time-resolved FRET reads energy transfer from a long-lived donor to a nearby acceptor.

Sequence of human recombinant FGFR3 catalytic structural domain protein (P22607 399-806): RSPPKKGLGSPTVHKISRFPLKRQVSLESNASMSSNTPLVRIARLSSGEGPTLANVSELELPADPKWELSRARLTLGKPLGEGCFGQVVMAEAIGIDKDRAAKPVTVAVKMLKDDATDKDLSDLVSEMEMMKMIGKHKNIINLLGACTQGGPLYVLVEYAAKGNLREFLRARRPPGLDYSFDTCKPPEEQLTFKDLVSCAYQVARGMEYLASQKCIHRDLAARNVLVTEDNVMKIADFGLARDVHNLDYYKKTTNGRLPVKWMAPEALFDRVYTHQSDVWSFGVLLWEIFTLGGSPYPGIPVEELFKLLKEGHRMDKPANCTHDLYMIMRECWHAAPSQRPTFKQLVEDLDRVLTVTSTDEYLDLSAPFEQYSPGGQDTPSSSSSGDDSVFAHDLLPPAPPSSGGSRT

As to `COC[C@@H](C)Oc1cc(NC(=O)N(C)c2ccc(CN3CCOCC3=O)c(C=O)n2)ncc1C#N` [Compound 14, (R)-3-(5-cyano-4-((1-methoxyprop-2-yl)oxo)pyrid-2-yl)-1-(6-formyl-5-((3-carbonylmorpholino)methyl)pyrid-2-yl)-1-methylurea], the IC50 – broadly, the concentration at which inhibition is half-maximal – was more than 1 µM.
